Nine compounds from patent US6946470B2, “Method of treating psychosis in a patient” (Medical and Pharmaceutical Industry Technology and …, priority 2002, dated 2005) can be followed below.

Test [1] addresses T1, human dopamine D2L receptors (Homo sapiens, UniProt P14416).
T1 construct: expressed in transfected cells
Briefly: Dopamine D2L receptor binding assay ([3H]Spiperone). The conditions noted are these: 30 nM, CHO cell membranes. On the procedure:
Dopamine D2L Receptor Binding Assay
This assay measures binding of [^3H]Spiperone to human dopamine D2L receptors. CHO cells stably transfected with a plasmid encoding the human dopamine D2L receptor were used to prepare membranes in modified Tris-HCl pH 7.4 buffer. A 20 μg aliquot of membrane, in the presence or absence of a test compound, was incubated with 0.16 nM [^3H]Spiperone for 120 minutes at 25° C. Non-specific binding was estimated in the presence of 10 μM hapoperidol. Membranes were filtered and washed three times and the filters were counted to determine [^3H]Spiperone specifically bound. [References: Grandy D K, Marchionni M A, Makam H, Stofko R E, Alfano M, Frothingham L, Fischer J B, Burker-Howie K J, Bunzow J R, Server A C. Proc. Natl. Acad. Sci. (USA) 86: 9762-9766, 1989; Bunzow J R, Van Tol H H, Grandy D K, Albert P, Salon J, Christie M, Machida C A, Neve K A, Civelli O. Nature 336: 783-787, 1988; Hayes G, Biden T J, Selbie L A, Shine J. Mol. Endocrin. 6: 920-926, 1992]

Test [2] deals with T2, serotonin 5-HT2 receptors (Rattus norvegicus, UniProt P14842).
T2 construct: from tissue; host or cells: rat whole brain (except cerebellum) membranes
T2 sequence (P14842 whole entry): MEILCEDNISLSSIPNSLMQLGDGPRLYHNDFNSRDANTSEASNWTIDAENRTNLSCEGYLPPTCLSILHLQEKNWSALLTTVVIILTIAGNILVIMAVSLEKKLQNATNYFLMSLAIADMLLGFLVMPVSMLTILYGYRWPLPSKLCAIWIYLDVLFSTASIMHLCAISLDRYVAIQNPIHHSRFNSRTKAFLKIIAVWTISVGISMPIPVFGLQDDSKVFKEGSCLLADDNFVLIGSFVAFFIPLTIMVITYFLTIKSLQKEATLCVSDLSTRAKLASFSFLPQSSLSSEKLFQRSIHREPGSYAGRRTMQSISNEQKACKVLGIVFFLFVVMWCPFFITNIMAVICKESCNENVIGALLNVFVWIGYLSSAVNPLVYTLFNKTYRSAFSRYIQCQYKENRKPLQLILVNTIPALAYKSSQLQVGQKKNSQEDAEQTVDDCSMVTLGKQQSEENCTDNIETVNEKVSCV
Nature of the test: Serotonin 5-HT2 receptor binding assay ([3H]Ketanserin). To be noted: 30 nM, rat whole brain membranes. How it is done: Serotonin 5-HT2 Receptor Binding Assay
This assay measures binding of [^3H]Ketanserin to serotonin 5-HT2 receptors. Whole brain (except cerebellum) membranes of male Wistar derived rats weighing 175±25 g were prepared in Tris-HCl pH 7.7 buffer. A 10 mg aliquot of membrane was incubated with 0.5 nM [^3H]Ketanserin for 40 minutes at 25° C. Non-specific binding was estimated in the presence of 1 μM Ketanserin. Membranes were filtered and washed three times and the filters were counted to determine [^3H]Ketanserin specifically bound. [Reference: Leysen J E, Niemegeers C J, Van Nauten J M, Laduron D M. Mol. Pharmacol. 21: 301-314, 1982]

For test [3], the system named is apomorphine-induced climbing behavior in mice. Nature of the test: Effects on apomorphine-induced climbing behavior. The test is classed as in vivo. To be noted: for Inhibition % of apomorphine-induced climbing behavior: apomorphine 1 mg/kg SC 60 min after dosing; for Agonist activity (score): group score 0-6, 30 to 60 minutes post-dosing, 3 mice. On the procedure: Climbing behavior was scored 0-2 for each animal from 30 to 60-minutes post-dosing: all four paws on floor=0, both forefeet holding the wall=1, all four paws on wall=2. Consequently, maximum possible group score was 2×3 mice=6. A score of 3 or more (≧3) during this 30 minute observation period denotes dopamine-agonist activity. Mice in which no significant dopamine agonist activity occurred were then used to determine antagonistic activity. […] [Reference: Psychopharmacology 50: 1-6, 1976] Percentage inhibition of test substance on apomorphine-induced climbing behavior is calculated as follows: [formula]

T1 sequence (P14416 whole entry): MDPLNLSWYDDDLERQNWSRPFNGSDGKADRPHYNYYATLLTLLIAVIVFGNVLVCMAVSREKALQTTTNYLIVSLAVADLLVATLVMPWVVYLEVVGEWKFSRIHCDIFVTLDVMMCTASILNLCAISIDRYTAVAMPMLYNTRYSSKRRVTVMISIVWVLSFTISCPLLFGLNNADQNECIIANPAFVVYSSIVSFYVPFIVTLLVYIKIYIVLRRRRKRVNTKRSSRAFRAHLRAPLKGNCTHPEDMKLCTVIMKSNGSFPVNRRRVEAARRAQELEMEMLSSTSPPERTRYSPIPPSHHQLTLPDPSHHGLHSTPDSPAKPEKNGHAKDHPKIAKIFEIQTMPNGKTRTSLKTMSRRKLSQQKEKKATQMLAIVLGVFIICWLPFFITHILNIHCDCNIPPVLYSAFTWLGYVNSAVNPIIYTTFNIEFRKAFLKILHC

In the case of `O=C1Nc2ccccc2C2=NC(CC3CCC4(CCCCC4)NC3)CN12` (stereo not shown) [PDC-122, 3-{2,3-dihydroimidazo[1,2-c]quinazolin-5(6H)-one-2-yl}methyl-azaspiro-[5,5]undecane], the inhibition (usually the share of the control response that was lost under treatment) at 0.03 µM in test [1] came out at 13%; in test [2] it was 2%.

Turning to `O=C1Nc2ccccc2C2=NC(CNC3CCN(Cc4ccccc4)CC3)CN12` (stereo not shown) [PDC-126, 2-[1-benzylpiperidin-4-yl]aminomethyl-2,3-dihydroimidazo[1,2-c]-quinazolin-5(6H)-one], the inhibition at 0.03 µM was determined as 29% in test [1] and 11% in test [2].

Take `O=C1Nc2ccccc2C2=NC(CN3CCC(Cc4ccccc4)CC3)CN12` (stereo not shown) [PDC-124, 2-[4-Benzyl-1-piperidinyl]methyl-2,3-dihydroimidazo[1,2-c]quinazolin-5(6H)-one]: the inhibition at 0.03 µM in test [1] was 14%. This compound also had an inhibition at 0.03 µM in test [2] of 62%. Besides, in test [3] (PO 30 mg/kg), the “Inhibition % of apomorphine-induced climbing behavior” value worked out at 50% and the “Agonist activity (score)” value was determined as 0.

Turning to `O=C1Nc2ccccc2C2=NC(CN3CCN(C(c4ccccc4)c4ccc(Cl)cc4)CC3)CN12` (stereo not shown) [PDC-131, 2-[1-(4-chlorobenzhydryl)piperazinyl]methyl-2,3-dihydroimidazo[1,2-c]-quinazolin-5(6H)-one], in test [1], the “Inhibition % D2L” value worked out at 10%. In addition, the “Inhibition % 5-HT2” value in test [2] worked out at 47%.

As for `O=C1Nc2ccccc2C2=NC(CN3CCN(Cc4ccc5c(c4)OCO5)CC3)CN12` (stereo not shown) [PDC-123, 2-[4-piperonyl-1-piperazinyl]methyl-2,3-dihydroimidazo[1,2-c]-quinazolin-5(6H)-one], the results for the inhibition at 0.03 µM in test [1] and in test [2] were 11% and 4%, respectively.

Regarding `O=C1Nc2ccccc2C2=NC(CN3CCN(Cc4ccccc4)CC3)CN12` (stereo not shown) [PDC-121, 2-[4-benzyl-1-piperazinyl]methyl-2,3-dihydroimidazo[1,2-c]quinazolin-5(6H)-one], the inhibition at 0.03 µM was determined as 18% in test [1] and 21% in test [2].

In the case of `O=C(c1ccc(F)cc1)C1CCN(CC2CN3C(=O)Nc4ccccc4C3=N2)CC1` (stereo not shown) [PDC-130, 2-[1-(4-p-fluorobenzoyl)piperidinyl]methyl-2,3-dihydroimidazo[1,2-c]-quinazolin-5(6H)-one], the “Inhibition % D2L” value in test [1] amounted to 16%. Moreover, the “Inhibition % 5-HT2” value in test [2] came to 88%. Also, the “Inhibition % of apomorphine-induced climbing behavior” value in test [3] (PO 1 mg/kg) turned out to be 0%; in test [3] (PO 3 mg/kg), 60%; in test [3] (PO 10 mg/kg) it was 100%; in test [3] (PO 30 mg/kg), 100%. Also, the “Agonist activity (score)” value in test [3] (PO 1 mg/kg), in test [3] (PO 3 mg/kg), in test [3] (PO 10 mg/kg) and in test [3] (PO 30 mg/kg) was 0 throughout.

For `COc1ccc(N2CCN(CC3CN4C(=O)Nc5ccccc5C4=N3)CC2)cc1` (stereo not shown) [PDC-132, 2-[1-(4-methoxyphenyl)piperazinyl]methyl-2,3-dihydroimidazo[1,2-c]-quinazolin-5(6H)-one], in test [1], the “Inhibition % D2L” value was 15%. Further, in test [2], the “Inhibition % 5-HT2” value is recorded as 5%.

Consider `O=C1Nc2ccccc2C2=NC(CN3CCN(Cc4ccc(F)cc4)CC3)CN12` (stereo not shown) [PDC-127, 2-[4-(4-fluorobenzyl)-1-piperazinyl]methyl-2,3-dihydroimidazo[1,2-c]quinazolin-5(6H)-one], for which the figures for the inhibition at 0.03 µM in test [1] and in test [2] were 11% and 20%, respectively.
